The record followed here is patent US9783530B2, “Factor Xla inhibitors” (Merck Sharp & Dohme Corp., priority 2014, dated 2017).

Experiment [1] deals with purified Human plasma kallikrein (Homo sapiens (Human), UniProt P03952). In words: Kallikrein Assay. Format: biochemical. The settings on record: purified Human plasma kallikrein 0.5 nM, substrate Acetyl-K-P-R-AFC, pH 7.4; read-out: P. KLK IC50. As for the experimental part:
(§1) The effectiveness of a compound of the present invention as an inhibitor of Kallikrein can be determined using a relevant purified serine protease, and an appropriate synthetic substrate. The rate of hydrolysis of the chromogenic or fluorogenic substrate by the relevant serine protease was measured both in the absence and presence of compounds of the present invention. Assays were conducted at room temperature or at 37° C. […] A decrease in the rate of fluorescence change in the presence of inhibitor is indicative of enzyme inhibition. Such methods are known to one skilled in the art. The results of this assay are expressed as the inhibitory constant, Ki.
Kallikrein determinations were made in 50 mM HEPES buffer at pH 7.4 containing 150 mM NaCl, 5 mM CaCl2, and 0.1% PEG 8000 (polyethylene glycol; Fisher Scientific). Determinations were made using purified Human plasma kallikrein at a final concentration of 0.5 nM (Enzyme Research Laboratories) and the synthetic substrate, Acetyl-K-P-R-AFC (Sigma # C6608) at a concentration of […].
Activity assays were performed by diluting a stock solution of substrate at least tenfold to a final concentration ≦0.2 Km into a solution containing enzyme or enzyme equilibrated with inhibitor. Times required to achieve equilibration between enzyme and inhibitor were determined in control experiments. The reactions were performed under linear progress curve conditions and fluorescence increase measured at 405 Ex/510 Em nm. Values were converted to percent inhibition of the control reaction (after subtracting 100% Inhibition value). IC50 was determined by inflection point from a four parameter logistic curve fit. Ki was calculated using the Cheng Prusoff equation, Ki=IC50/(1+([S]/Km)).

In experiment [2] the target is purified human Factor XIa (Homo sapiens (Human), UniProt P03951). Description: Factor XIa Assay. The format is biochemical. To be noted: purified human Factor XIa 40 pM, substrate Z-Gly-Pro-Arg-AFC, pH 7.4; read-out: FXIa IC50. As for the experimental part:
as §1, with “Coagulation Factor XIa” for “Kallikrein”, “The results of this assay are expressed as the inhibitory constant, Ki.” left out
Factor XIa determinations were made in 50 mM HEPES buffer at pH 7.4 containing 150 mM NaCl, 5 mM CaCl2, and 0.1% PEG 8000 (polyethylene glycol; JT Baker or Fisher Scientific). Determinations were made using purified human Factor XIa at a final concentration of 40 pM (Sekisui Diagnostics) and he synthetic substrate, Z-Gly-Pro-Arg-AFC, TFA salt (Sigma #C0980) at a concentration of 100 µM.
Activity assays were performed by diluting a stock solution of substrate at least tenfold to a final concentration ≦0.1 Km into a solution containing enzyme or enzyme equilibrated with inhibitor. Times required to achieve equilibration between enzyme and inhibitor were determined in control experiments. Initial velocities of product formation in the absence (Vo) or presence of inhibitor (Vi) were measured. Assuming competitive inhibition, and that unity is negligible compared Km/[S], [I]/e, and [I]/e (where [S], [I], and e respectively represent the total concentrations, of substrate, inhibitor and enzyme), the equilibrium constant (Ki) for dissociation of the inhibitor from the enzyme can be obtained from the dependence of Vo/Vi on [I] shown in the following equation.

purified human Factor XIa, sequence (P03951 388-625): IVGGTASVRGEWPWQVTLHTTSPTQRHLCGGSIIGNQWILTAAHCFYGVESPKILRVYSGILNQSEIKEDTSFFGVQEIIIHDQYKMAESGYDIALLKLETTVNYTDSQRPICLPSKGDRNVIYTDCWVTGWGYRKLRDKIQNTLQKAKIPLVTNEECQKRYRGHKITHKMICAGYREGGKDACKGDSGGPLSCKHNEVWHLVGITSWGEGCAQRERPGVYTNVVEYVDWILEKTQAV
purified human Factor XIa, sequence (P03951 19-387 partner): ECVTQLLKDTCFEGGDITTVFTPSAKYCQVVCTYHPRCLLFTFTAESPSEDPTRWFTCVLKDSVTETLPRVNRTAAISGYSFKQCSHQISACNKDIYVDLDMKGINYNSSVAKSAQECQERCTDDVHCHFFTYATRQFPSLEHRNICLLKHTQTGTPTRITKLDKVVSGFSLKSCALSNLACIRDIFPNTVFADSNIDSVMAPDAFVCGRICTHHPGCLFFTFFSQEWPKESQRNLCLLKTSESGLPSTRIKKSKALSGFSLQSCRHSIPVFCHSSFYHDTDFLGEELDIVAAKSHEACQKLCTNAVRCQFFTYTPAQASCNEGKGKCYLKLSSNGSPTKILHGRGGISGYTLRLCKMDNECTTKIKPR
purified Human plasma kallikrein, sequence (P03952 391-638): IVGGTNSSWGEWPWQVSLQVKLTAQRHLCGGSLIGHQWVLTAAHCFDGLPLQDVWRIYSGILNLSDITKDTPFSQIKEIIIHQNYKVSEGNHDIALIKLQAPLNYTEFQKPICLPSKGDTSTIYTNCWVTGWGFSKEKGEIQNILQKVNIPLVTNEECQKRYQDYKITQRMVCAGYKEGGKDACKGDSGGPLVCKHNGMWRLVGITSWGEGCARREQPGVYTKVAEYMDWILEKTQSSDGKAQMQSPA
purified Human plasma kallikrein, sequence (P03952 20-390 partner): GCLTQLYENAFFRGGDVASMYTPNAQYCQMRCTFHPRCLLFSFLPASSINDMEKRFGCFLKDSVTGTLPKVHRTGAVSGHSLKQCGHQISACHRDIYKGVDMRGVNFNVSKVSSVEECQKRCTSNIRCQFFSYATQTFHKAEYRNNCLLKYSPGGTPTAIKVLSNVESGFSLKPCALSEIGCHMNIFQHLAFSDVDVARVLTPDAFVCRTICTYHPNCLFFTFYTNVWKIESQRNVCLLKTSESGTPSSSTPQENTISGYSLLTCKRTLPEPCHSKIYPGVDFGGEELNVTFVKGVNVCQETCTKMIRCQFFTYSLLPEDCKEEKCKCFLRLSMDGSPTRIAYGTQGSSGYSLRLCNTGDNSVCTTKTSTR

Broadly, the IC50 is the concentration that inhibits the measured activity by half. For `O=C(NC12CCC(C(=O)O)(CC1)CC2)C(Cc1ccccc1)c1ccc(-c2c(F)ccc(Cl)c2F)c[n+]1[O-]` (single isomer, unassigned) [Example 15, 4-({2-[5-(3-chloro-2,6-difluorophenyl)-1-oxidopyridin-2-yl]-3-phenylpropanoyl}amino) bicyclo[2.2.2]octane-1-carboxylic acid], the IC50 in experiment [1] was 45 nM; in experiment [2], 111 nM.

Turning to `O=C(O)c1ccc(NC(=O)C(CC2CC2)c2ccc(-c3cc(Cl)ccc3-n3cnnn3)c[n+]2[O-])c(Cl)c1` (single isomer, unassigned) [Example 32, 3-chloro-4-[(2-{5-[5-chloro-2-(1H-tetrazol-1-yl)phenyl]-1-oxidopyridin-2-yl}-3-cyclopropylpropanoyl)amino]benzoic acid], the results for the IC50 in experiment [1] and in experiment [2] were 692 nM and 3.37 nM, respectively.

As to `NCc1ccc(Cl)cc1-c1ccc(C(CC2CC2)C(=O)Nc2ccc(C(=O)O)cc2)[n+]([O-])c1` (racemic) [Example 40, 4-[(2-{5-[2-(aminomethyl)-5-chlorophenyl]-1-oxidopyridin-2-yl}-3-cyclopropylpropanoyl)amino]benzoic acid], the IC50 in experiment [1] came to 1880 nM; in experiment [2], 30.6 nM.

Consider `O=C(O)c1ccc(NC(=O)C(CC2CC2)c2ccc(-c3cc(Cl)ccc3-n3ccnn3)c[n+]2[O-])cc1` (single isomer, unassigned) [Example 54, 4-[(2-{5-[5-chloro-2-(1H-1,2,3-triazol-1-yl)phenyl]-1-oxidopyridin-2-yl}-3-cyclopropylpropanoyl)amino]benzoic acid], for which the results for the IC50 in experiment [1] and in experiment [2] were 678 nM and 4.7 nM, respectively.

For `O=C(Nc1ccc2cn[nH]c2c1)C(Cc1ccccc1)c1ccc(-c2c(F)ccc(Cl)c2F)c[n+]1[O-]` (racemic) [Example 5, 2-[5-(3-chloro-2,6-difluorophenyl)-1-oxidopyridin-2-yl]-N-1H-indazol-6-yl-3-phenylpropanamide], the IC50 worked out at 91.4 nM in experiment [1] and 109 nM in experiment [2].

Take `O=C(Cc1ccc(-c2c(F)ccc(Cl)c2F)c[n+]1[O-])Nc1ccc(C(=O)O)cc1` [Example 9, 4-({[5-(3-chloro-2,6-difluorophenyl)-1-oxidopyridin-2-yl]acetyl}amino) benzoic acid]: the IC50 was found to be 1570 nM in experiment [1] and 89.2 nM in experiment [2].

`O=C(Cc1ccc(-c2cc(Cl)ccc2-n2cnnn2)c[n+]1[O-])Nc1ccc(C(=O)O)cc1` [Example 14, 4-[({5-[5-chloro-2-(1H-tetrazol-1-yl)phenyl]-1-oxidopyridin-2-yl}acetyl)amino] benzoic acid]: the IC50 in experiment [1] came to 1350 nM; in experiment [2], 18.5 nM.

With `COC(=O)NC12CCC(NC(=O)C(Cc3ccccc3)c3ccc(-c4cc(Cl)ccc4-n4cnnn4)c[n+]3[O-])(CC1)CC2` (single isomer, unassigned) [Example 19, methyl {4-[(2-{5-[5-chloro-2-(1H-tetrazol-1-yl)phenyl]-1-oxidopyridin-2-yl}-3-phenylpropanoyl)amino]bicyclo[2.2.2]oct-1-yl}carbamate], the IC50 in experiment [1] came out at 9.2 nM; in experiment [2] it was 4.1 nM.

As for `O=C(O)c1ccc(NC(=O)[C@@H](Cc2ccccc2)c2ccc(-c3cc(Cl)ccc3-n3cnnn3)c[n+]2[O-])cc1` [Example 1, 4-{[(2S)-2-{5-[5-chloro-2-(1H-tetrazol-1-yl)phenyl]-1-oxidopyridin-2-yl}-3-phenylpropanoyl]amino} benzoic acid], the IC50 in experiment [1] amounted to 83.1 nM; in experiment [2], 32.7 nM.

Regarding `Cc1cc(C(Cc2ccccc2)C(=O)Nc2ccc(C(=O)O)cc2)[n+]([O-])cc1-c1c(F)ccc(Cl)c1F` (stereo not shown) [Example 25, 2-(1-((4-carboxyphenyl)amino)-1-oxo-3-phenylpropan-2-yl)-5-(3-chloro-2,6-difluorophenyl)-4-methylpyridine 1-oxide], the values for the 50% inhibitory concentration (IC50) in experiment [1] and in experiment [2] were 42.3 nM and 8.32 nM, respectively.

In the case of `COc1cc(C(Cc2ccccc2)C(=O)Nc2ccc(C(=O)O)cc2)[n+]([O-])cc1-c1cc(Cl)ccc1C#N` (single isomer, unassigned) [Example 23, 2-(1-((4-carboxyphenyl)amino)-1-oxo-3-phenylpropan-2-yl)-5-(5-chloro-2-cyanophenyl)-4-methoxypyridine 1-oxide], the IC50 turned out to be 24.6 nM in experiment [1] and 9.39 nM in experiment [2].
